Literature values as cited in US20030185915A1, “Synergetic composition for the treatment of psoriasis and other skin disorders and method therefor” (priority 2002, published 2003).

Test system: psoriatic arthritis
Conditions: usually within four to eight weeks

## O=C(O)c1cc(/N=N/c2ccc(S(=O)(=O)Nc3ccccn3)cc2)ccc1O [Sulfasalazine]
  fraction of PA patients responding rapidly: Approximately one-third
